Measured values published in US20100260716A1, “COMPOUNDS FOR TREATING DEM[…]” (UCB PHARMA GMBH, priority 2007, published 2010).

Assays:
[1] = test system: acute EAE induced by MBP/CFA; assay: Acute experimental allergic encephalomyelitis (EAE) rat model; type: in vivo, female Lewis rats; settings: days 0-21, vehicle-treated animals onset at day 9, significantly postponed
Description: EAE is induced in female Lewis rats on day zero of the study by a single inoculum injection of myelin basic protein (MBP) and complete Freund's adjuvant (CFA) containing heat killed Mycobacterium tuberculosis F137 Ra at a concentration of 4 mg/ml (MD Biosciences Ltd, Israel). This MBP/CFA encephalitogenic emulsive inoculum (100 μg MBP+200 μg CFA) is injected at a total dose volume of 100 μl/animal, delivered as 2×50 subcutaneous bilateral injections into the intraplanar paw regions.
Lacosamide is administered by intraperitoneal (i.p.) injection twice daily (b.i.d.) on days 0-21 of the study, in a volume of 10 ml/kg at daily doses of 6, 20 and 60 mg/kg. A vehicle control containing no lacosamide is administered by the same route and at the same frequency.
The duration of the study is 21 days. Careful clinical examinations are carried out and recorded at least once daily in addition to EAE clinical scoring and assessment. […]
Initially, all animals are examined for signs of any neurological responses and symptoms prior to EAE induction (day 0) and thereafter examined on a daily basis through the entire 21-day observation period. To avoid experimental bias, EAE reactions are determined in a blinded fashion, as much as possible, by a staff member unaware of the specific treatment applied. […]

[2] = target: collapsin response mediator protein 2 (CRMP-2) (Homo sapiens, UniProt Q16555); settings: statement quoted from poster, Stoehr et al., November 2006; cited from earlier work

## COC[C@@H](NC(C)=O)C(=O)NCc1ccccc1 [lacosamide, (R)-2-acetamido-N-benzyl-3-methoxypropionamide]
[1]; 10 mg/kg b.i.d. i.p.
  Disease onset (day after EAE induction): 12 days
[1]; 30 mg/kg b.i.d. i.p.
  Disease onset (day after EAE induction): 12 days
[2]
  Effect on CRMP-2 and on the effects of neurotrophic factors on axon growth: modulates CRMP-2 and as a consequence attenuates the effects of neurotrophic factors on axon growth
